The test system of test [1] is ovariectomized rats (uterus). In words: Uterine weight in ovariectomized (OVX) rats, 4-day oral dosing. In kind it is in vivo, female Sprague Dawley rats. Conditions: for Uterine Weight (% increase vs. OVX): OVX rats. The procedure: (§1) In the examples illustrating the methods of the present invention, a post-menopausal model was used in which effects of different treatments upon circulating lipids were determined.
(§2) Seventy-five day old female Sprague Dawley rats (weight range of 200 to 225g) were obtained from Charles River Laboratories (Portage, MI). The animals were either bilaterally ovariectomized (OVX) or exposed to a Sham surgical procedure at Charles River Laboratories, and then shipped after one week. Upon arrival, they were housed in metal hanging cages in groups of 3 or 4 per cage and had ad libitum access to food (calcium content approximately 0.5%) and water for one week. Room temperature was maintained at 22.2°±1.7° C. with a minimum relative humidity of 40%. The photoperiod in the room was 12 hours light and 12 hours dark.
(§3) Dosing Regimen Tissue Collection. After a one week acclimation period (therefore, two weeks post-OVX) daily dosing with test compound was initiated. 17α-ethynyl estradiol or the test compound were given orally, unless otherwise stated, as a suspension in 1% carboxymethylcellulose or dissolved in 20% cyclodextrin. Animals were dosed daily for 4 days. Following the dosing regimen, animals were weighed and anesthetized with a ketamine: xylazine (2:1, V:V) mixture and a blood sample was collected by cardiac puncture. The animals were then sacrificed by asphyxiation with CO2, the uterus was removed through a midline incision, and a wet uterine weight was determined.
(§4) Data presented in Table 1 below show comparative results among ovariectomized rats, rats treated with 17α-ethynyl estradiol (EE2; an orally available form of estrogen), and rats treated with certain compounds of the present invention. […] This uterine response to estrogen is well recognized in the art.
(§5) The data presented in the Tables 1 below reflects the response of 5 to 6 rats per treatment.

Test [2] has as its system Uterine Eosinophil Peroxidase (EPO). In words: Uterine Eosinophil Peroxidase (EPO) Assay / eosinophil infiltration into the uterus of ovariectomized rats. To be noted: for Uterine EPO (V. max): OVX rats, oral. In kind it is in vivo, female Sprague Dawley rats. More on the design: Uterine EPO (V. max): unit not given here. The procedure: as §1, §2, §3
Uterine Eosinophil Peroxidase (EPO) Assay. Uteri were kept at 4° C. until time of enzymatic analysis. The uteri were then homogenized in 50 volumes of 50 mM Tris buffer (pH-8.0) containing 0.005% Triton X-100. Upon addition of 0.01% hydrogen peroxide and 10 mM O-phenylenediamine (final concentrations) in Tris buffer, increase in absorbance was monitored for one minute at 450 nm. The presence of eosonophils in the uterus is an indication of estrogenic activity of a compound. The maximal velocity of a 15 second interval was determined over the initial, linear portion of the reaction curve.
As is expressed in the below data, estrogenicity also was assessed by evaluating the adverse response of eosinophil infiltration into the uterus.
as §5

Test [3] concerns serum cholesterol. In words: Serum cholesterol in ovariectomized rats, 4-day oral dosing. Conditions: for Serum Cholesterol (% decrease vs. OVX): OVX rats. The class given is in vivo, female Sprague Dawley rats. The method, then:
as §1, §2, §3
Cholesterol Analysis. Blood samples were allowed to clot at room temperature for 2 hours, and serum was obtained following centrifugation for 10 minutes at 3000 rpm. Serum cholesterol was determined using a Boehringer Mannheim Diagnostics high performance cholesterol assay. Briefly the cholesterol was oxidized to cholest-4-en-3-one and hydrogen peroxide. The hydrogen peroxide was then reacted with phenol and 4-amino-phenazone in the presence of peroxidase to produce a p-quinone imine dye, which was read spectrophotemetrically at 500 nm. Cholesterol concentration was then calculated against a standard curve. The entire assay was automated using a Biomek Automated Workstation.
as §4, §5

In test [4] the test system is proximal tibiae metaphysis (bone mineral density) of ovariectomized rats. In words: Osteoporosis Test Procedure: protection against bone loss in ovariectomized rats, 35 days. The class given is in vivo. To be noted: oral; for Tibia BMD pQCT (% protection): OVX rats. The text has this:
Seventy-five day old female Sprague Dawley rats (weight range of 200 to 225g) were obtained from Charles River Laboratories (Portage, MI). The animals were either bilaterally ovariectomized (OVX) or exposed to a Sham surgical procedure at Charles River Laboratories, and then shipped after one week. Upon arrival, they were housed in metal hanging cages in groups of 3 or 4 per cage and had ad libitum access to food (calcium content approximately 0.5%) and water for one week. Room temperature was maintained at 22.2°±1.7° C. with a minimum relative humidity of 40%. The photoperiod in the room was 12 hours light and 12 hours dark. Following the General Preparation Procedure, infra, the rats were treated daily for 35 days (6 rats per treatment group) and sacrificed by carbon dioxide asphyxiation on the 36th day. The 35 day time period was sufficient to allow maximal reduction in bone density, measured as described herein. At the time of sacrifice, the uteri were removed, dissected free of extraneous tissue, and the fluid contents were expelled before determination of wet weight in order to confirm estrogen deficiency associated with complete ovariectomy. […] The uteri were then placed in 10% neutral buffered formalin to allow for subsequent histological analysis. The right femurs were excised and digitilized x-rays generated and analyzed by an image analysis program (NIH image) at the distal metaphysis. The proximal aspect of the tibiae from these animals were also scanned by quantitative computed tomography. In accordance with the above procedures, compounds of the present invention and ethynyl estradiol (EE2) in 20% hydroxypropyl β-cyclodextrin were orally administered to test animals. Proximal tibiae metaphysis data presented in Table 2 are the results of formula I compound treatments compared to intact and ovariectomized test animals. Results are reported as percent protection against bone loss which was calculated for individual animals by the following formula: % protection=(BMDtest BMDovx)/(BMDsham -BMDovx)×100.

For test [5], the system named is MCF-7 breast adenocarcinoma cells. In words: MCF-7 Proliferation Assay. In kind it is cell-based. To be noted: Homo sapiens, MCF7; MCF-7 cells, tritiated thymidine incorporation, 48 hours. The procedure: MCF-7 Proliferation Assay MCF-7 breast adenocarcinoma cells (ATCC HTB 22) were maintained in MEM (minimal essential medium, phenol red- free, Sigma, St. Louis, Mo.) supplimented with 10% fetal bovine serum (FBS) (V/V), L-glutamine (2 mM), sodium pyruvate (1 mM), HEPES {(N-[2-hydroxyethyl]piperazine-N'-[2-ethanesulfonic acid]10 mM}, non-essential amino acids and bovine insulin (1 ug/mL) (maintenance medium). Ten days prior to assay, MCF-7 cells were switched to maintenance medium supplemented with 10% dextran coated charcoal stripped fetal bovine serum (DCC-FBS) assay medium) in place of 10% FBS to deplete internal stores of steroids. MCF-7 cells were removed from maintenance flasks using cell dissociation medium (Ca++/Mg++free HBSS (phenol red-free) supplemented with 10 mM HEPES and 2 mM EDTA). Cells were washed twice with assay medium and adjusted to 80,000 cells/mL. Approximately 100 μL (8,000 cells) were added to flat-bottom microculture wells (Costar 3596) and incubated at 37° C. in a 5% CO2 humidified incubator for 48 hours to allow for cell adherence and equilibration after transfer. Serial dilutions of drugs or DMSO as a diluent control were prepared in assay medium and 50 μL transferred to triplicate microcultures followed by 50 μL assay medium for […]. After an additional 48 hours at 37° C. in a 5% CO2 humidified incubator, microcultures were pulsed with tritiated thymidine (1 uCi/well) for 4 hours. Cultures were terminated by freezing at -70° C. for 24 hours followed by thawing and harvesting of microcultures using a Skatron Semiautomatic Cell Harvester. Samples were counted by liquid scintillation using a Wallac BetaPlace β counter. Results in Table 4 below show the IC50 for certain compounds of the present invention.
Background: Incorporation of labelled thymidine or its analogues reports DNA synthesis.

[6] abbreviates: 0.1 mg/kg daily for 35 days, values marked * (two tailed Student's T Test).

The values that follow come from patent US5811421A, “Naphthyl and dihydronaphthyl intermediates, compounds, compositions, and methods” (Eli Lilly and Company, priority 1996, dated 1998).

Molecules are shown by their SMILES. Where a name gives a salt, the structure may show the parent alone.

As for `C#C[C@]1(O)CC[C@H]2[C@@H]3CCc4cc(O)ccc4[C@H]3CC[C@@]21C` [EE2, 17α-ethynyl estradiol, reference compound], the “Uterine weight (in words)” value in test [1] (0.1 mg/kg/day) was “uterine weight was substantially greater than the uterine weight of ovariectomized test animals”. The “Uterine Weight (% increase vs. OVX)” value in test [1] (0.1 mg/kg daily for 4 days) is recorded as 86.3%. Besides, in test [2] (0.1 mg/kg daily for 4 days), the “Uterine EPO (V. max)” value was 116.4. In addition, the “eosinophil infiltration into the uterus (in words)” value in test [2] (stromal layer of ovariectomized rats) is on record as “substantial, expected increase in eosinophil infiltration”. Further, the “Serum cholesterol (in words)” value in test [3] (0.1 mg/kg/day) is on record as “caused a decrease in serum cholesterol”. For the same compound, the “Serum Cholesterol (% decrease vs. OVX)” value in test [3] (0.1 mg/kg daily for 4 days) was determined as 81.4%. Besides, the “Tibia BMD pQCT (% protection)” value in test [4] (setting [6]) is reported as 60.9%. Also, in test [4] (ovariectomized rats, 35 days), the “prevention of bone loss (in words)” value is listed as “prevented this loss”.

The term IC50 denotes the concentration needed to halve the response being measured. Consider `CCc1ccc2cc(O)ccc2c1Cc1ccc(OCCN2CCCCC2)cc1` [Example 1, [2-Ethyl-6-hydroxynaphthalen-1-yl][4-[2-(1-piperdinyl)ethoxy]phenyl]methanehydrochloride], for which the “Uterine Weight (% increase vs. OVX)” value is -3.3% in test [1] (0.1 mg/kg daily for 4 days), 3.0% in test [1] (1.0 mg/kg daily for 4 days) and 60.2% in test [1] (10.0 mg/kg daily for 4 days). Further, the “Uterine EPO (V. max)” value in test [2] (0.1 mg/kg daily for 4 days) was 6.6; in test [2] (1.0 mg/kg daily for 4 days), 12.0; in test [2] (10.0 mg/kg daily for 4 days), 12.0. Besides, the “Serum Cholesterol (% decrease vs. OVX)” value in test [3] (0.1 mg/kg daily for 4 days) was determined as 20.3%; in test [3] (1.0 mg/kg daily for 4 days) it was 23.1%; in test [3] (10.0 mg/kg daily for 4 days), 38.6%. In test [5], this compound displayed an IC50 of 10 nM.

Regarding `Oc1ccc2c(Cc3ccc(OCCN4CCCCC4)cc3)c([C@H]3CC[C@H](O)CC3)ccc2c1` [Example 2, hydrochloride], the entries for the “Uterine Weight (% increase vs. OVX)” value in test [1] (0.1 mg/kg daily for 4 days), in test [1] (1.0 mg/kg daily for 4 days) and in test [1] (10.0 mg/kg daily for 4 days) were 32.0%, 17.1% and 6.7%, respectively. In addition, the “Uterine EPO (V. max)” value in test [2] (0.1 mg/kg daily for 4 days) is 4.8; in test [2] (1.0 mg/kg daily for 4 days), 4.8; in test [2] (10.0 mg/kg daily for 4 days), 3.6. For the same compound, the “Serum Cholesterol (% decrease vs. OVX)” value in test [3] (0.1 mg/kg daily for 4 days) turned out to be 57.8%; in test [3] (1.0 mg/kg daily for 4 days), 71.8%; in test [3] (10.0 mg/kg daily for 4 days), 34.9%. In addition, the IC50 in test [5] was determined as 1 nM.

Regarding `COc1ccc2c(c1)CCC(C1CCCCC1)=C2C(=O)c1ccc(OCCN2CCCCC2)cc1` [Example 4, [3,4-Dihydro-2-cyclohexyl-6-methoxynaphthalen-1-yl][4-[2-(1-piperdinyl)ethoxy]phenyl]methanone], the “Uterine Weight (% increase vs. OVX)” value came to 32.0% in test [1] (0.1 mg/kg daily for 4 days), 30.7% in test [1] (1.0 mg/kg daily for 4 days) and 24.2% in test [1] (10.0 mg/kg daily for 4 days). Further, the results for the “Uterine EPO (V. max)” value in test [2] (0.1 mg/kg daily for 4 days), in test [2] (1.0 mg/kg daily for 4 days) and in test [2] (10.0 mg/kg daily for 4 days) were 2.1, 8.1 and 10.6, respectively. Moreover, the “Serum Cholesterol (% decrease vs. OVX)” value in test [3] (0.1 mg/kg daily for 4 days) is on record as 65.5%; in test [3] (1.0 mg/kg daily for 4 days), 56.6%; in test [3] (10.0 mg/kg daily for 4 days) it was 58.3%.

Regarding `COc1ccc2c(Cc3ccc(OCCN4CCCCC4)cc3)c(C3CCCCC3)ccc2c1` [Example 5, [2-Cyclohexyl-6-methoxynaphthalen-1-yl][4-[2-(1-piperdinyl)ethoxy]phenyl]methane], the results for the “Uterine Weight (% increase vs. OVX)” value in test [1] (0.1 mg/kg daily for 4 days), in test [1] (1.0 mg/kg daily for 4 days) and in test [1] (10.0 mg/kg daily for 4 days) were 21.2%, 10.4% and 6.4%, respectively. Also, the “Uterine EPO (V. max)” value in test [2] (0.1 mg/kg daily for 4 days) is listed as 21.2; in test [2] (1.0 mg/kg daily for 4 days), 4.2; in test [2] (10.0 mg/kg daily for 4 days) it was 5.3. The “Serum Cholesterol (% decrease vs. OVX)” value in test [3] (0.1 mg/kg daily for 4 days) worked out at 77.6%; in test [3] (1.0 mg/kg daily for 4 days), 76.3%; in test [3] (10.0 mg/kg daily for 4 days) it was 65.8%. Besides, half-maximal inhibition in test [5] (IC50) required 10 nM.

With `Oc1ccc2c(Cc3ccc(OCCN4CCCCC4)cc3)c(C3CCCCC3)ccc2c1` [Example 6, [2-Cyclohexyl-6-hydroxynaphthalen-1-yl][4-[2-(1-piperdinyl)ethoxy]phenyl]methane hydrochloride], the “Uterine Weight (% increase vs. OVX)” value in test [1] (0.1 mg/kg daily for 4 days) came to 65.7%; in test [1] (1.0 mg/kg daily for 4 days), 22.8%; in test [1] (10.0 mg/kg daily for 4 days), 22.0%. The “Uterine EPO (V. max)” value in test [2] (0.1 mg/kg daily for 4 days) was determined as 17.7; in test [2] (1.0 mg/kg daily for 4 days), 4.2; in test [2] (10.0 mg/kg daily for 4 days), 4.5. Moreover, the “Serum Cholesterol (% decrease vs. OVX)” value in test [3] (0.1 mg/kg daily for 4 days) is recorded as 57.4%; in test [3] (1.0 mg/kg daily for 4 days) it was 46.8%; in test [3] (10.0 mg/kg daily for 4 days) it was 63.9%. Moreover, the “Tibia BMD pQCT (% protection)” value in test [4] (0.01 mg/kg daily for 35 days) is reported as 23.1%; in test [4] (setting [6]) it was 52.6%; in test [4] (1.0 mg/kg daily for 35 days), 30.1%; in test [4] (3.0 mg/kg daily for 35 days, value marked * (two tailed Student's T Test)) it was 59.6%. This compound also registered a concentration for half-maximal inhibition (IC50) in test [5] of 0.6 nM.
